Like-named read-outs stand apart in the source and are kept apart here. Where only a bound is given, the exact number is not on record here.

For one data set, the target named is AURKB (Homo sapiens, UniProt Q96GD4). The data set can be described thus: NanoBRET assay in HEK293T cells. The note with it: NanoBRET. On the set-up: full-length wild-type AURKA, AURKB, and AURKC were obtained as plasmids cloned in frame with a C-terminal NanoLuc-fusion; host or cells: HEK293T. The data set is classed as cell-based.
A further data set concerns the target T1, PAK4 (Homo sapiens, UniProt O96013).
T1 construct: purchased in-house thermal shift (DSF) kinase panel (SGC Frankfurt); Promega NanoBRET for AURKA/B/C
The data set can be described thus: Thermal shift assay. The conditions noted are these: compound 10 µM; n = 3; read-out: ΔTm PAK4. It is filed as binding.

In a further data set the target is T2, STK26 (Homo sapiens, UniProt Q9P289).
T2 construct: purchased in-house thermal shift (DSF) kinase panel (SGC Frankfurt); Promega NanoBRET for AURKA/B/C
The data set can be described thus: Thermal shift assay. It is filed as binding. The note with it: compound 10 µM; n = 3; read-out: ΔTm STK26.

For a further data set, the target named is T3, CHEK2 (Homo sapiens, UniProt O96017).
T3 construct: purchased in-house thermal shift (DSF) kinase panel (SGC Frankfurt); Promega NanoBRET for AURKA/B/C
The data set can be described thus: Thermal shift assay. The conditions noted are these: compound 10 µM; n = 3; read-out: ΔTm CHEK2. The data set is classed as binding.

Data set [1] concerns CFL1 phosphorylation in MCD4 cells. In words: CFL1 phosphorylation, Western blotting. It is filed as cell-based, mouse. The note with it: compound 30 µM, 1 h; for CFL1 phosphorylation in combination with forskolin: forskolin 30 µM, 30 min. (In general: Immunoblotting shows a protein as a band on a membrane.)
A further data set has as its target T4, DAPK3 (Homo sapiens, UniProt O43293).
T4 construct: purchased in-house thermal shift (DSF) kinase panel (SGC Frankfurt); Promega NanoBRET for AURKA/B/C
The data set can be described thus: Thermal shift assay. The conditions noted are these: compound 10 µM; n = 3; read-out: ΔTm DAPK3. The data set is classed as binding.

A further data set has as its target T5, GSG2 (Homo sapiens, UniProt Q8TF76).
T5 construct: purchased in-house thermal shift (DSF) kinase panel (SGC Frankfurt); Promega NanoBRET for AURKA/B/C
T5 sequence (Q8TF76 465-798): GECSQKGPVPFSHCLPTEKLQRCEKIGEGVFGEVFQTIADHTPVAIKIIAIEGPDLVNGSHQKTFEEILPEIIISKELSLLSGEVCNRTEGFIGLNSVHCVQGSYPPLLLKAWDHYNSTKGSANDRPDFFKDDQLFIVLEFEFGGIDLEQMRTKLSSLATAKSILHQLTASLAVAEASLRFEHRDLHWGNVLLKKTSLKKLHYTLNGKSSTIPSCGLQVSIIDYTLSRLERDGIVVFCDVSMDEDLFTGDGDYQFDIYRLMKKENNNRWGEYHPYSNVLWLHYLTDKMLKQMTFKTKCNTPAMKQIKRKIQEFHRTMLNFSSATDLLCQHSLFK
In words: Thermal shift assay. The data set is classed as binding. The note with it: compound 10 µM; n = 3; read-out: ΔTm GSG2.

Another data set has as its target T6, CDK2 (Homo sapiens, UniProt P24941).
T6 construct: purchased in-house thermal shift (DSF) kinase panel (SGC Frankfurt); Promega NanoBRET for AURKA/B/C
In words: Thermal shift assay. The data set is classed as binding. The note with it: compound 10 µM; n = 3; read-out: ΔTm CDK2.

Another data set deals with T7, GSK3B (Homo sapiens, UniProt P49841).
T7 construct: purchased in-house thermal shift (DSF) kinase panel (SGC Frankfurt); Promega NanoBRET for AURKA/B/C
The data set can be described thus: Thermal shift assay. It is filed as binding. The note with it: compound 10 µM; n = 3; read-out: ΔTm GSK3B.

In another data set the target is T8, CAMK1G (Homo sapiens, UniProt Q96NX5).
T8 construct: purchased in-house thermal shift (DSF) kinase panel (SGC Frankfurt); Promega NanoBRET for AURKA/B/C
The data set can be described thus: Thermal shift assay. The data set is classed as binding. The note with it: compound 10 µM; n = 3; read-out: ΔTm CAMK1G.

The target of the next data set is T9, CSNK1D (Homo sapiens, UniProt P48730).
T9 construct: purchased in-house thermal shift (DSF) kinase panel (SGC Frankfurt); Promega NanoBRET for AURKA/B/C
T9 sequence (P48730 1-294): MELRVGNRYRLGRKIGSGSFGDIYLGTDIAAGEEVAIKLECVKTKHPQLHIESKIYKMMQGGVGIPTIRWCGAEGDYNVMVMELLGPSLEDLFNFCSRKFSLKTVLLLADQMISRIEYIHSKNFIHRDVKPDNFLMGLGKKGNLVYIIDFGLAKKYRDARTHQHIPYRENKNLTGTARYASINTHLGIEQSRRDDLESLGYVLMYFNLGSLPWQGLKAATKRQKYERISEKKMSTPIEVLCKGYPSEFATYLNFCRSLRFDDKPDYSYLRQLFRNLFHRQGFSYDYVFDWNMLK
In words: Thermal shift assay. The conditions noted are these: compound 10 µM; n = 3; read-out: ΔTm CSNK1D. It is filed as binding.

A further data set concerns the target T10, VRK1 (Homo sapiens, UniProt Q99986).
T10 construct: purchased in-house thermal shift (DSF) kinase panel (SGC Frankfurt); Promega NanoBRET for AURKA/B/C
T10 sequence (Q99986 1-396): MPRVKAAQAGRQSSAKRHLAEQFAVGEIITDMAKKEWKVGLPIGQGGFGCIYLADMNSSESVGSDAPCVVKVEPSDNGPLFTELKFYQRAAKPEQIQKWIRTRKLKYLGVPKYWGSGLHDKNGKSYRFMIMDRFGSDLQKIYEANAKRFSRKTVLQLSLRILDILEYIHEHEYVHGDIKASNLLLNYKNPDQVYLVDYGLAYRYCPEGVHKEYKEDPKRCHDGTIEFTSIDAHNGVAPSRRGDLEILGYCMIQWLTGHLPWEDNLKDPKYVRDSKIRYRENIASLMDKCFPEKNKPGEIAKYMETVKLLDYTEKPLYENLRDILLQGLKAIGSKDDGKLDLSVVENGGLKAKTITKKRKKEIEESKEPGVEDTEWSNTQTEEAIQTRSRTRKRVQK
In words: Thermal shift assay. The data set is classed as binding. The note with it: compound 10 µM; n = 3; read-out: ΔTm VRK1.

The target of another data set is T11, GRK5 (Homo sapiens, UniProt P34947).
T11 construct: purchased in-house thermal shift (DSF) kinase panel (SGC Frankfurt); Promega NanoBRET for AURKA/B/C
The data set can be described thus: Thermal shift assay. The data set is classed as binding. The note with it: compound 10 µM; n = 3; read-out: ΔTm GRK5.

Another data set concerns the target T12, STK38L (Homo sapiens, UniProt Q9Y2H1).
T12 construct: purchased in-house thermal shift (DSF) kinase panel (SGC Frankfurt); Promega NanoBRET for AURKA/B/C
The data set can be described thus: Thermal shift assay. The data set is classed as binding. The note with it: compound 10 µM; n = 3; read-out: ΔTm STK38L.

The target in the next data set is T13, CSNK2A1 (Homo sapiens, UniProt P68400).
T13 construct: purchased in-house thermal shift (DSF) kinase panel (SGC Frankfurt); Promega NanoBRET for AURKA/B/C
In words: Thermal shift assay. The data set is classed as binding. The conditions noted are these: compound 10 µM; n = 3; read-out: ΔTm CSNK2A1.

The target in another data set is T14, ABL1 (Homo sapiens, UniProt P00519).
T14 construct: purchased in-house thermal shift (DSF) kinase panel (SGC Frankfurt); Promega NanoBRET for AURKA/B/C
T14 sequence (P00519 229-512): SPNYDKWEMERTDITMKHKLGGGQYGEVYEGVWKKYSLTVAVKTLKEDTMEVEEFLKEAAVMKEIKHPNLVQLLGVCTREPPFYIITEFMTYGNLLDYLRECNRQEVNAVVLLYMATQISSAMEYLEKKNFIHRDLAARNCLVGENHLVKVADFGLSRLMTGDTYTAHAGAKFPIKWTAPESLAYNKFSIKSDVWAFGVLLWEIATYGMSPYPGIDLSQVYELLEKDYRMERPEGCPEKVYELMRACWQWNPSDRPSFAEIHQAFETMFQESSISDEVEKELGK
In words: Thermal shift assay. The conditions noted are these: compound 10 µM; n = 3; read-out: ΔTm ABL1. The data set is classed as binding.

Another data set deals with T15, MAP2K1 (Homo sapiens, UniProt Q02750).
T15 construct: purchased in-house thermal shift (DSF) kinase panel (SGC Frankfurt); Promega NanoBRET for AURKA/B/C
In words: Thermal shift assay. The note with it: compound 10 µM; n = 3; read-out: ΔTm MAP2K1. The data set is classed as binding.

In a further data set the test system is MCD4 cells. The data set can be described thus: MTS assay (cell viability). The conditions noted are these: 30 µM, 10 µM or 1 µM, 1 h; compared to untreated cells. It is filed as cell-based, mouse. In general terms: Tetrazolium assays rely on reduction of a dye to a coloured formazan, in cell work by metabolically active cells.
[2] abbreviates: n = 2, mean, Figure 6B, read-out: affinity to intracellular AURKB.

T4 sequence (O43293 9-289): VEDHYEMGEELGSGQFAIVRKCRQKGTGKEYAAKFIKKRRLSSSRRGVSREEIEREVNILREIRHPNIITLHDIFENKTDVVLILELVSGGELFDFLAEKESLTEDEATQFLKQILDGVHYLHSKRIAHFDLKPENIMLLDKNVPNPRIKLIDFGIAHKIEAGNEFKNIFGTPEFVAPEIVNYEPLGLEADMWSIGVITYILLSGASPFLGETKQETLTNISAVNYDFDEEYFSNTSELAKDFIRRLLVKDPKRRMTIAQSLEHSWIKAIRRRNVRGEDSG
T1 sequence (O96013 291-591): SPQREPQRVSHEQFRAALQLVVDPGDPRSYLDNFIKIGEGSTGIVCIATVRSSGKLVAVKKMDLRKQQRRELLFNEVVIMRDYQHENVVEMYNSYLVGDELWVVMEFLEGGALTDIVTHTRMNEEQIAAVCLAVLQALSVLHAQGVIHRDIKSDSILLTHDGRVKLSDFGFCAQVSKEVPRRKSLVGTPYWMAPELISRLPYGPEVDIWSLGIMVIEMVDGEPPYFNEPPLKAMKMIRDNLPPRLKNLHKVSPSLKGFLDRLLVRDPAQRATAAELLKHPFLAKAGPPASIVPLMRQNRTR
T3 sequence (O96017 210-531): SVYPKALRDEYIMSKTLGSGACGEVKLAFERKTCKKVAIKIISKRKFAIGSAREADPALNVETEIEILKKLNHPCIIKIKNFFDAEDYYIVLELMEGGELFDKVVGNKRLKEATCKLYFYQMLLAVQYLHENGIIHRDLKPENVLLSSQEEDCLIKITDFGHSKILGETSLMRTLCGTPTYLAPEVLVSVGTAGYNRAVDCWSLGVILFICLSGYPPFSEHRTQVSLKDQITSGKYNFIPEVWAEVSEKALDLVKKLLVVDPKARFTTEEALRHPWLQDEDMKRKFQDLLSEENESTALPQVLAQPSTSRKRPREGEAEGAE
T11 sequence (P34947 186-514): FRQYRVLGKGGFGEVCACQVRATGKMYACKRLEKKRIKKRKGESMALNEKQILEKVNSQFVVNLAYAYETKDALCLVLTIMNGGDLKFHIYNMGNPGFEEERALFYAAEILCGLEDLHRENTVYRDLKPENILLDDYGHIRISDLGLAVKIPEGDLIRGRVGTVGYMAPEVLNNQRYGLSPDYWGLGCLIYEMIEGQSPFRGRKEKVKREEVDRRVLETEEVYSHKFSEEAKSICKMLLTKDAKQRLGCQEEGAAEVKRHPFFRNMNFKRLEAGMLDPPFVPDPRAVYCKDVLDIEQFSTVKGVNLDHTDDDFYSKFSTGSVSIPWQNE
T7 sequence (P49841 35-386): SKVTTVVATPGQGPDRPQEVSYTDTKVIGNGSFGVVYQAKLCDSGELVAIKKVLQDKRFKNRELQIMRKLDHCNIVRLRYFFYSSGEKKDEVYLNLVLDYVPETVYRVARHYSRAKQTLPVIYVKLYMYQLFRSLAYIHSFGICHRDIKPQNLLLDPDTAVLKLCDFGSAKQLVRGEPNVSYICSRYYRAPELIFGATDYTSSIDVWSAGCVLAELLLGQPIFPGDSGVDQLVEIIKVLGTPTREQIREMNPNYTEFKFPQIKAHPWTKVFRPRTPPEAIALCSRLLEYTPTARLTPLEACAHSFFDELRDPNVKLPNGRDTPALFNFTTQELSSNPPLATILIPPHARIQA
T2 sequence (Q9P289 1-300): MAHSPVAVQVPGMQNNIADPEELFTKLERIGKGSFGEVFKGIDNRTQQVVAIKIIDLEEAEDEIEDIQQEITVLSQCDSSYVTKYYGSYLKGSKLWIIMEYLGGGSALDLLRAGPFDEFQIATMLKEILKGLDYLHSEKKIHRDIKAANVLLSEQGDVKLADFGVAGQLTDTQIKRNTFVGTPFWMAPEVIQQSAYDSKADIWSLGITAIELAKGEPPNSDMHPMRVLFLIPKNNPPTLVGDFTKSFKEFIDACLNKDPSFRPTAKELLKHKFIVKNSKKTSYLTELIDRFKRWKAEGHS
T8 sequence (Q96NX5 23-277): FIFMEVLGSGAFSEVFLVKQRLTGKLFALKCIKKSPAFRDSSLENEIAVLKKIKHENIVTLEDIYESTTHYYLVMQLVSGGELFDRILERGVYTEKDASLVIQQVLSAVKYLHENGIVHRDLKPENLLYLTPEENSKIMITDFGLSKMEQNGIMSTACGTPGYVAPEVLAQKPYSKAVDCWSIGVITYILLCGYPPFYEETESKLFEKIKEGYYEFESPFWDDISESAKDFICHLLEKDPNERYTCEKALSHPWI
Sequence of AURKB (Q96GD4 whole entry, the tested form may be a part): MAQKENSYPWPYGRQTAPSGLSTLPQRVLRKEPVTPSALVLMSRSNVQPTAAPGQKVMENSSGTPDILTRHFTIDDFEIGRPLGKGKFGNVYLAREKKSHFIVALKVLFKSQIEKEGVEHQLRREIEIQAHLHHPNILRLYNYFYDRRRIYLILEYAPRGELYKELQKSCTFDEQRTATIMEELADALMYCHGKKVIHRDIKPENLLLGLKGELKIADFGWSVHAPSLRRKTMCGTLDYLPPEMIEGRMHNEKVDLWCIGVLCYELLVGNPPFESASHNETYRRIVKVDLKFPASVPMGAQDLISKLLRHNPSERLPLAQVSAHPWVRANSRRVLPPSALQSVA
T13 sequence (P68400 1-337): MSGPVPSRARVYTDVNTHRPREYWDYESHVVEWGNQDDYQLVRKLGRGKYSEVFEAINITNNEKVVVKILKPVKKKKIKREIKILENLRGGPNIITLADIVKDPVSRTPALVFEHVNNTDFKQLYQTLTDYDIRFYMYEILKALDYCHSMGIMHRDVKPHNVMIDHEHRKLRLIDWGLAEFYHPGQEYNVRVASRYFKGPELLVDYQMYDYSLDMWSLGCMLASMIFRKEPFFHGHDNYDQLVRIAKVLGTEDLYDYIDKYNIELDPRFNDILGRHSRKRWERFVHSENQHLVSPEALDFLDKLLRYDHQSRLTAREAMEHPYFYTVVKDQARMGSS
T12 sequence (Q9Y2H1 90-453): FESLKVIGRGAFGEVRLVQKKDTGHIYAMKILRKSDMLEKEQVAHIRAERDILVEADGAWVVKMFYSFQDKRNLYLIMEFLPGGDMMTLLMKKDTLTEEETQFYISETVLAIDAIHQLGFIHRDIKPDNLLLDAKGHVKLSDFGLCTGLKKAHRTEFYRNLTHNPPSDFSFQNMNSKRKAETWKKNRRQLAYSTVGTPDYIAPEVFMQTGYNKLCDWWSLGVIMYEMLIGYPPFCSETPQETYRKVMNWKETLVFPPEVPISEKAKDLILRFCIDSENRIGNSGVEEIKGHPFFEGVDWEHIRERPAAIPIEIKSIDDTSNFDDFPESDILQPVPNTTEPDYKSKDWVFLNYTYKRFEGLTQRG
T15 sequence (Q02750 68-361): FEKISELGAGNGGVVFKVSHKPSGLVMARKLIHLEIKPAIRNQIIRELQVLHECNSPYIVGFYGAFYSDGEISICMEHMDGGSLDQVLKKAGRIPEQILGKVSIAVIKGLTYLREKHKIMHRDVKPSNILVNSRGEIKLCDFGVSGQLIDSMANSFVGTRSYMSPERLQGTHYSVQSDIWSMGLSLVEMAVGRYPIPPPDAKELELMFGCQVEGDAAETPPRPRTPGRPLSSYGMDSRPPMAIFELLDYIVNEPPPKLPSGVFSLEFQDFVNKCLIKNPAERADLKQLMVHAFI

Broadly, the ΔTm is the shift of the melting midpoint relative to a reference. `NC(=O)Cc1ccc(Nc2ncc(F)c(Nc3ccc(C(=O)Nc4ccccc4Cl)cc3)n2)cc1` [ERJ2-06]: at AURKB (setting [2]), the IC50 was found to be 13.6 µM. Further, the thermal shift (ΔTm) at 10 µM on PAK4 was found to be 0.3 °C; at STK26, 1.7 °C; at CHEK2, 3.5 °C; at DAPK3 it was 4.8 °C; at GSG2, 0.2 °C; on CDK2, 4.1 °C. Moreover, the ΔTm at 10 µM at GSK3B was 3.1 °C; on CAMK1G, 1.2 °C; at CSNK1D, 0 °C; on VRK1 it was 0.2 °C; at GRK5 it was 0 °C; at STK38L, 2.5 °C. Besides, the values for the ΔTm at 10 µM on CSNK2A1, at ABL1 and on MAP2K1 were 1.6 °C, 1.7 °C and 0 °C, respectively. Besides, in [1], the “CFL1 phosphorylation in combination with forskolin” value is on record as “Significant additive effects”. In addition, in the data set with MCD4 cells, the “viability of MCD4 cells” value is “did not elicit any significant effects”.
Regarding `CCN1CCN(C(=O)Cc2ccc(Nc3ncc(F)c(Nc4ccc(C(=O)Nc5ccccc5)cc4)n3)cc2)CC1` [ERJ2-11], the IC50 at AURKB (setting [2]) amounted to 43 µM. Besides, the ΔTm at 10 µM at PAK4 came to 1.1 °C; at STK26 it was 1.3 °C; on CHEK2, 3.6 °C; at DAPK3 it was 3.5 °C; at GSG2 it was 0 °C; at CDK2 it was 2.6 °C. Moreover, the ΔTm at 10 µM turned out to be 3.6 °C on GSK3B; 1.2 °C at CAMK1G; 0.2 °C on CSNK1D; 0.1 °C at VRK1; 0.2 °C at GRK5; 2.6 °C on STK38L. Besides, the values for the ΔTm at 10 µM on CSNK2A1, on ABL1 and at MAP2K1 were 1.1 °C, 3.6 °C and 0 °C, respectively. The “CFL1 phosphorylation in combination with forskolin” value in [1] was “Significant additive effects”. Besides, in the data set with MCD4 cells, the “viability of MCD4 cells” value was “reduced by 10 or 30 µM”.
Regarding `CCN1CCN(C(=O)Cc2ccc(Nc3ncc(F)c(Nc4ccc(C(=O)O)cc4)n3)cc2)CC1` [ERJ2-12], the IC50 at AURKB (HEK293T cells overexpressing the kinase, Table 2, read-out: AURKB IC50) is above 50 µM. Further, the thermal shift (ΔTm) at 10 µM at PAK4 is 0.1 °C; at STK26, -0.2 °C; on CHEK2 it was 0.3 °C; on DAPK3, 0.7 °C; on GSG2 it was 0 °C; on CDK2, 0.4 °C. The shift in melting temperature (ΔTm) at 10 µM on GSK3B was determined as 1 °C; on CAMK1G it was 0.2 °C; at CSNK1D, 0.2 °C; at VRK1 it was 0.1 °C; on GRK5, 0.2 °C; on STK38L it was 0.2 °C. In addition, the thermal shift (ΔTm) at 10 µM at CSNK2A1 was 1.3 °C; on ABL1, 2.6 °C; on MAP2K1, -0.1 °C. Also, the CFL1 phosphorylation entry in data set [1] (absence and presence of forskolin) was “no effect”. The “viability of MCD4 cells” value with MCD4 cells was “does not affect”.

The record behind these values is paper PMC8776063, “Aurora Kinase A Is Involved in Controlling the Localization of Aquaporin-2 in Renal Principal Cells” (International Journal of Molecular Sciences, 2022).
